Results published in patent US20220282217A1, “COMPOSITIONS AND METHODS FOR PREPARING T CELL COMPOSITIONS AND USES THEREOF” (priority 2019, published 2022).
Like-named read-outs stand apart in the source and are kept apart here. Each block holds one compound with its values, some of them ahead of it. Where a SMILES comes first, the peptide text is derived from it.

Experiments:
HLA-A03.01 [1] = biological target: T1, HLA-A03.01 (Homo sapiens, UniProt P04439); assay: Class I MHC peptide binding stability (pMHC-I dissociation, 125I-labeled light chain); design: made in house; host or cells: E. coli; conditions: for Measured stability: time for half of the complexes to dissociate at 37° C.
HLA-A11.01 [2] = biological target: T2, HLA-A11.01 (Homo sapiens, UniProt P04439, A114D/F33Y/S129P); assay: as above; conditions: HLA Allele A11.01; time for half of the complexes to dissociate at 37° C.
T2 construct: made in house; host or cells: E. coli

HLA-A03.01 [3] = biological target: T1, HLA-A03.01; assay: Class I MHC peptide binding affinity (displacement of radiolabeled reference peptide)
HLA-A11.01 [4] = biological target: HLA-A11.01 (Homo sapiens, UniProt P04439, A114D/D185E/E176A/F33Y/L180Q/S129P/T187R); assay: as above
HLA-A02.01 = biological target: T3, HLA-A02.01 (Homo sapiens, UniProt P04439, D140Y/D185E/D98H/E176V/E277Q/G131W/G231S/I119V/I121R/I166T/I218V/N151K/N90K/P208A/P217A/Q86G/Q94H/R138H/R169H); assay: Class I MHC peptide binding stability (pMHC-I dissociation, 125I-labeled light chain); conditions: allele A02.01
T3 construct: made in house; host or cells: E. coli

HLA-B08.01 = HLA-B08.01 (Homo sapiens, UniProt P01889, A93T/A95T/D138N/E176V/E187T/K202T/Q94N/R180D/S35A/V36M/Y33D/Y91F); assay: as above; conditions: Allele B08.01
HLA-A01.01 [5] = biological target: T4, HLA-A01.01 (Homo sapiens, UniProt P04439, A114D/A174V/A182V/D101N/E190D/Q94H/R68K/S129P/V100A/V91M/W191G); assay: as above
T4 construct: made in house; host or cells: E. coli

HLA-A01.01 [6] = biological target: HLA-A01.01 (Homo sapiens, UniProt P04439, A114D/A174V/A182V/D101N/D185E/E176A/E190D/L180R/Q94H/R68K/S129P/T187R/V100A/V91M/W191G); assay: Class I MHC peptide binding affinity (displacement of radiolabeled reference peptide)
Summary of the method: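 Read-out: radioactivity of reference peptide retained on MHCI, separated from free label by gel-filtration size exclusion. Competing peptides are titrated against the preformed complexes and incubated two days beforehand.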

[7] = Observed Affinity (IC50, (nM)), allele A03.01
[8] = allele A03.01, read-out: Observed Affinity (IC50, (nM))
[9] = Observed Affinity (IC50, (nM)), allele A01.01

Compound: CC(C)[C@H](N)C(=O)N[C@H](C(=O)NCC(=O)N[C@@H](C)C(=O)N[C@@H](CS)C(=O)NCC(=O)N[C@H](C(=O)NCC(=O)N[C@@H](CCCCN)C(=O)O)C(C)C)C(C)C
- Measured stability (HLA-A03.01 [1]; HLA Allele A03.01): 5.0 h
- Measured stability (HLA-A11.01 [2]): 10.0 h

Compound: CSCC[C@H](NC(=O)[C@H](C)N)C(=O)N[C@H](C(=O)N[C@H](C(=O)N[C@@H](CO)C(=O)N[C@@H](CO)C(=O)N[C@@H](CO)C(=O)N[C@@H](CCC(N)=O)C(=O)N[C@@H](CCCCN)C(=O)O)[C@@H](C)O)[C@@H](C)O (H-AMTTSSSQK-OH; N-terminus and C-terminus assumed)
- IC50 (HLA-A03.01 [3]; [7]): 8.3 nM
- IC50 (HLA-A11.01 [4]): 162 nM

- Stability (T1/2 (h)) (HLA-A02.01): 0.6 h
- Stability (T1/2 (h)) (HLA-B08.01): 0.4 h
Compound: CC[C@H](C)[C@H](NC(=O)[C@H](CCCCN)NC(=O)[C@H](CO)NC(=O)[C@H](CCC(=O)O)NC(=O)[C@H](C)NC(=O)[C@H](CCCCN)NC(=O)[C@H](CC(C)C)NC(=O)[C@H](Cc1ccccc1)NC(=O)[C@H](CCSC)NC(=O)[C@@H](N)Cc1ccc(O)cc1)C(=O)O

Compound: CC(C)[C@H](N)C(=O)N[C@H](C(=O)N[C@H](C(=O)NCC(=O)N[C@@H](C)C(=O)N[C@@H](CC(=O)O)C(=O)NCC(=O)N[C@H](C(=O)NCC(=O)N[C@@H](CCCCN)C(=O)O)C(C)C)C(C)C)C(C)C
- Measured stability (HLA-A03.01 [1]; HLA Allele A03.01): 2.3 h
- Measured stability (HLA-A11.01 [2]): 13.0 h

- IC50 (HLA-A03.01 [3]; [8]): 7 nM
- Stability (T1/2 (h)) (HLA-A03.01 [1]; allele A03.01): 13.5 h
Compound: CC(C)[C@H](NC(=O)[C@@H](N)CCCCN)C(=O)N[C@@H](CO)C(=O)N[C@@H](CCCNC(=N)N)C(=O)N[C@@H](CCC(=O)O)C(=O)N[C@@H](CC(N)=O)C(=O)N[C@H](C(=O)N[C@@H](CO)C(=O)N1CCC[C@H]1C(=O)N[C@@H](CCCCN)C(=O)O)[C@@H](C)O (H-KVSRENTSPK-OH; N-terminus and C-terminus assumed)

Compound: CC[C@H](C)[C@H](NC(=O)[C@H](CC(C)C)NC(=O)[C@H](CCC(N)=O)NC(=O)[C@@H](NC(=O)[C@@H](NC(=O)[C@H](CO)NC(=O)[C@@H](NC(=O)[C@@H](N)CC(C)C)[C@@H](C)O)[C@@H](C)O)C(C)C)C(=O)N[C@@H](CCSC)C(=O)O (H-LTSTVQLIM-OH; N-terminus and C-terminus assumed)
- Stability (half-life (hr.)) (HLA-A01.01 [5]; EGFR T790M peptides, HLA allele A01.01): 6.222 min
- Kd (HLA-A01.01 [6]): 2890 nM
- IC50 (HLA-A01.01 [6]; [9]): 2890 nM

Compound: CC(C)[C@H](N)C(=O)N[C@H](C(=O)NCC(=O)N[C@@H](C)C(=O)N[C@@H](CC(=O)O)C(=O)NCC(=O)N[C@H](C(=O)NCC(=O)N[C@@H](CCCCN)C(=O)O)C(C)C)C(C)C
- Measured stability (HLA-A11.01 [2]): 3.4 h

Compound: CSCC[C@H](N)C(=O)N[C@@H](C)C(=O)N[C@@H](CC(N)=O)C(=O)NCC(=O)N[C@@H](CO)C(=O)N[C@@H](CC(C)C)C(=O)N[C@@H](CC(C)C)C(=O)N[C@@H](CC(N)=O)C(=O)N[C@@H](Cc1ccc(O)cc1)C(=O)O
- IC50 (HLA-A03.01 [3]; Affinity (nM), BTK C481S peptide, HLA Allele A03.01): 35.6 nM
- IC50 (HLA-A03.01 [3]; [7]): 35.6 nM
- Stability (half-life (hr.)) (HLA-A01.01 [5]; BTK C481S peptide, HLA Allele A01.01): 12.98 min
- IC50 (HLA-A11.01 [4]): 536 nM
- Stability (half-life (hr.)) (HLA-A03.01 [1]; BTK C481S peptide, HLA Allele A03.01): 14.3 min
- IC50 (HLA-A01.01 [6]; Affinity (nM), BTK C481S peptide, HLA Allele A01.01): 439 nM
- IC50 (HLA-A01.01 [6]; [9]): 439 nM

- IC50 (HLA-A03.01 [3]; [8]): 8.8 nM
- IC50 (HLA-A11.01 [4]; allele A11.01, read-out: Observed Affinity (IC50, (nM))): 9.8 nM
Compound: CC[C@H](C)[C@H](NC(=O)[C@@H](N)CCCCN)C(=O)N[C@@H](CO)C(=O)N[C@@H](CC(N)=O)C(=O)N[C@@H](Cc1c[nH]c2ccccc12)C(=O)N[C@@H](CO)C(=O)N[C@@H](CC(C)C)C(=O)N[C@@H](CCCCN)C(=O)N[C@@H](CCCCN)C(=O)O (H-KISNWSLKK-OH; N-terminus and C-terminus assumed)
